Reference: ChEMBL document CHEMBL1136535, “Unexpected inhibition of S-adenosyl-L-homocysteine hydrolase by a guanosine nucleoside” (Bioorg Med Chem Lett, 2003)

Biological target: Adenosylhomocysteinase (Homo sapiens) (UniProt P23526)
Assay: Enzyme catalytic rate kinetic constant for S-adenosyl-L-homocysteine hydrolase; Not a substrate

Sequence of Adenosylhomocysteinase (Homo sapiens) (P23526 2-432 limits assumed): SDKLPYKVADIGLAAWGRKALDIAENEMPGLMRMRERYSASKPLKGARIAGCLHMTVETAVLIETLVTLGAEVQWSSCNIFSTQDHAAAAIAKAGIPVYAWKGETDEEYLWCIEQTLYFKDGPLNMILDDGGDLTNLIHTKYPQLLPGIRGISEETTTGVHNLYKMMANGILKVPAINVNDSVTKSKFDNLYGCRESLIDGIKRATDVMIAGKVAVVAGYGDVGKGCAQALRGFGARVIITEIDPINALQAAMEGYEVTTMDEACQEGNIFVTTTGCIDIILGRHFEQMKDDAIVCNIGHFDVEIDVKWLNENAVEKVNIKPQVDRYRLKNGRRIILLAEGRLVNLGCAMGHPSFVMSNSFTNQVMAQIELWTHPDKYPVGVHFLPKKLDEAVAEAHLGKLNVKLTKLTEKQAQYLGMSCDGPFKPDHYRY

k cat: Not a substrate
Structure (SMILES): Nc1nc(O)cc(-c2cncn2C2O[C@H](CO)[C@@H](O)[C@H]2O)n1 (stereo partly specified)
